These results are taken from PMC6147075, “Discovery of novel fragments inhibiting O-acetylserine sulphhydrylase by combining scaffold hopping and ligand–based drug design” (Journal of Enzyme Inhibition and Medicinal Chemistry, 2018).

T3 sequence (P0A1E3 whole entry): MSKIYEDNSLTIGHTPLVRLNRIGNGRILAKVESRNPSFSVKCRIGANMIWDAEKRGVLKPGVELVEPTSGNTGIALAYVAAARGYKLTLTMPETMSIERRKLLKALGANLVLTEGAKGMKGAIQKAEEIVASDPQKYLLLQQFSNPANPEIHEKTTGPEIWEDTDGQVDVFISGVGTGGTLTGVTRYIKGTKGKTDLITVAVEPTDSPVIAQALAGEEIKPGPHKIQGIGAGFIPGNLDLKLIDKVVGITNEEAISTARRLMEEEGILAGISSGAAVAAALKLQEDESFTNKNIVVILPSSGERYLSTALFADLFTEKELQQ

For one assay, the target named is T1, OASS-A (Salmonella typhimurium, UniProt P0A1E3).
T1 construct: His6 (N, cleaved yes); made in house; host or cells: E. coli Rosetta (DE3)
T1 sequence (P0A1E3 whole entry): as above
Nature of the assay: 96-well activity assay (cysteine-ninhydrin), OASS-A. In kind it is biochemical, Salmonella enterica serovar Typhimurium. The settings on record: compound 1 µM; bisulfide 600 µM, OAS at Km; two replicates; ns = Not Significant. How it is done:
(§1) The genes cysK and cysM encoding STOASS-A and STOASS-B, respectively, were subcloned from pET16b[34] to pET19m in order to replace the restriction site for Factor Xa with the one for TEV protease. pET19m-STcysK and pET19m-STcysM were transformed in E. coli Rosetta^TM (DE3) competent cells for protein expression. Protein expression and purification was performed following published protocols[34] with some modifications. Briefly, protein expression was induced on bacterial growth in exponential phase by IPTG for 4 and 5 h for OASS-B and OASS-A, respectively. Cells were lysed by pulsed sonication in 50 mM NaP, 300 mM NaCl, pH 7, with the addition of 1 mg/mL lysozyme. Purification was performed by immobilized metal affinity column (IMAC) on Co^2+ ions (Talon™, Clontech Laboratories, Inc., Mountain View, CA). Proteins were eluted with 250 mM (His6-OASS-A) or 600 mM (His6-OASS-B) imidazol. His-tag was removed from His6-OASS-A by treatment with TEV protease during O/N dialysis in 10 mM HEPES pH 8. His-tag was removed from His6-OASS-B by treatment with TEV protease in 20 mM HEPES, 100 mM NaCl, 1 mM TCEP pH 8 for 24 h at 5 °C. […] OASS-A was stored in 10 mM HEPES pH 8 and OASS-B in 20 mM HEPES, 100 mM NaCl, 1 mM TCEP pH 8.
(§2) The concentration of bisulfide was saturating (600 μM), whereas the concentration of OAS was set at Km to increase the sensitivity. The dissociation constant of selected compounds for StOASS-A and OASS-B was measured by a fluorimetric method published elsewhere[23]^,[24]. Briefly, a solution containing 1 µM StOASS-A in 100 mM Hepes pH 7 was titrated with increasing concentrations of compound at 20 °C. The fluorescence emission intensity of the PLP cofactor at 505 nm upon excitation at 412 nm was collected after each addition, subtracted by the blank and normalized by the protein dilution. The dependence of the emission intensity at 505 nm on the concentration of the compound was fitted to a binding isotherm[23] to calculate the dissociation constant of the protein-ligand complex.
As to `Cc1ccc(-n2nccc2C(=O)O)cc1` [Compound 4a, 1-(p-tolyl)-1H-pyrazole-5-carboxylic acid], the “% inhibition OASS-A” value is “ns^b”.

`O=C(O)c1ccnn1-c1ccccc1` [Compound 4b, 1-phenyl-1H-pyrazole-5-carboxylic acid]: the “% inhibition OASS-A” value is listed as “ns”.

`O=C(O)c1ccn[nH]1` [Compound 4c, 1H-pyrazole-5-carboxylic acid] registered an inhibition at 1 µM of 9 ± 7%.

As for `O=C(O)c1ccnn1-c1ccc(Cl)cc1` [Compound 4d, 1–(4-chlorophenyl)-1H-pyrazole-5-carboxylic acid], the “% inhibition OASS-A” value is recorded as “ns”.

`O=C(O)c1ccnn1-c1ccc(Br)cc1` [Compound 4e, 1–(4-bromophenyl)-1H-pyrazole-5-carboxylic acid]: the “% inhibition OASS-A” value is given as “ns”.

Regarding `CC(C)(C)c1ccc(-n2nccc2C(=O)O)cc1` [Compound 4f, 1–(4-(tert-butyl)phenyl)-1H-pyrazole-5-carboxylic acid], the “% inhibition OASS-A” value is recorded as “ns”.

`O=C(O)c1ccnn1-c1ccc(F)cc1` [Compound 4g, 1–(4-fluorophenyl)-1H-pyrazole-5-carboxylic acid] showed an inhibition at 1 µM of 8 ± 1%.

With `O=C(O)c1ccnn1C1CCCCC1` [Compound 4h, 1-cyclohexyl-1H-pyrazole-5-carboxylic acid], the “% inhibition OASS-A” value was “ns”.

Still in this assay, the particulars now being: compound 1 mM; bisulfide 600 µM, OAS at Km; two replicates.
With `Cc1ccc(-n2nccc2C(=O)O)cc1` [Compound 4a, 1-(p-tolyl)-1H-pyrazole-5-carboxylic acid], the “% inhibition OASS-A” value is 45 ± 3%.

In the case of `O=C(O)c1ccn[nH]1` [Compound 4c, 1H-pyrazole-5-carboxylic acid], the “% inhibition OASS-A” value is listed as 94 ± 1%.

For `O=C(O)c1ccnn1-c1ccc(Br)cc1` [Compound 4e, 1–(4-bromophenyl)-1H-pyrazole-5-carboxylic acid], the “% inhibition OASS-A” value is reported as 84 ± 1%.

Staying with this assay, now noted: compound 1 mM; bisulfide 600 µM, OAS at Km; two replicates; read-out: % inhibition OASS-A.
With `O=C(O)c1ccnn1-c1ccccc1` [Compound 4b, 1-phenyl-1H-pyrazole-5-carboxylic acid], the inhibition at 1000 µM amounted to 66 ± 1%.

As for `O=C(O)c1ccn[nH]1` [Compound 4c, 1H-pyrazole-5-carboxylic acid], the inhibition at 1000 µM is more than 90%.

For the compound `O=C(O)c1ccnn1-c1ccc(Cl)cc1` [Compound 4d, 1–(4-chlorophenyl)-1H-pyrazole-5-carboxylic acid], the inhibition at 1000 µM is 60 ± 2%.

As to `CC(C)(C)c1ccc(-n2nccc2C(=O)O)cc1` [Compound 4f, 1–(4-(tert-butyl)phenyl)-1H-pyrazole-5-carboxylic acid], the inhibition at 1000 µM was determined as 47 ± 1%.

On to `O=C(O)c1ccnn1-c1ccc(F)cc1` [Compound 4g, 1–(4-fluorophenyl)-1H-pyrazole-5-carboxylic acid], for which the inhibition at 1000 µM worked out at 95 ± 1%.

As for `O=C(O)c1ccnn1C1CCCCC1` [Compound 4h, 1-cyclohexyl-1H-pyrazole-5-carboxylic acid], the inhibition at 1000 µM came to 57 ± 1%.

Still in this assay, the particulars now being: read-out: % inhibition OASS-A, compound 1 mM; bisulfide 600 µM, OAS at Km; two replicates.
With `Cc1ccc(-n2nccc2C(=O)O)cc1` [Compound 4a, 1-(p-tolyl)-1H-pyrazole-5-carboxylic acid], the inhibition at 1000 µM came to 50%.

`O=C(O)c1ccnn1-c1ccc(Br)cc1` [Compound 4e, 1–(4-bromophenyl)-1H-pyrazole-5-carboxylic acid]: the inhibition at 1000 µM was more than 80%.

For the next assay, the target named is T2, OASS-B (Salmonella typhimurium, UniProt P29848).
T2 construct: His6 (N, cleaved yes); made in house; host or cells: E. coli Rosetta (DE3)
T2 sequence (P29848 1-303): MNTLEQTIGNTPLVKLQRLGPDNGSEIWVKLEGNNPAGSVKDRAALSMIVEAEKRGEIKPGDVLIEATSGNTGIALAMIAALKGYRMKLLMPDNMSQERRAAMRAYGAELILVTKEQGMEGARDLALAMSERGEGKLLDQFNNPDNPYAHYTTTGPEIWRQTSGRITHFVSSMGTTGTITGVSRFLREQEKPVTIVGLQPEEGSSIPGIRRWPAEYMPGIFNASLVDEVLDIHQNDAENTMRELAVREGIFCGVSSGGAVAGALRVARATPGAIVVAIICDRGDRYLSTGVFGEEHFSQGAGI
As to the kind of experiment: biochemical. Format: binding.
Details: not given
The procedure: as §1, §2
`O=C(O)c1ccn[nH]1` [Compound 4c, 1H-pyrazole-5-carboxylic acid] registered a Kd of 272 ± 10 µM.

Staying with this assay, now noted: LE = (1.37/HA). pIC50, HA = heavy atoms.
`O=C(O)c1ccn[nH]1` [Compound 4c, 1H-pyrazole-5-carboxylic acid]: the “LE (OASS-B)” value is listed as 0.61 kcal/mol/HA.

The next assay addresses T2, OASS-B. Nature of the assay: 96-well activity assay (cysteine-ninhydrin), OASS-B. Format: biochemical.
Details: not given
How it is done:
as §1, §2
In the case of `O=C(O)c1ccnn1-c1ccccc1` [Compound 4b, 1-phenyl-1H-pyrazole-5-carboxylic acid], at 1 µM the inhibition was 11 ± 3%.

In turn, `O=C(O)c1ccnn1-c1ccc(Cl)cc1` [Compound 4d, 1–(4-chlorophenyl)-1H-pyrazole-5-carboxylic acid] registered an inhibition at 1 µM of 9 ± 6%.

`O=C(O)c1ccnn1-c1ccc(F)cc1` [Compound 4g, 1–(4-fluorophenyl)-1H-pyrazole-5-carboxylic acid] came in with an inhibition at 1 µM of 14 ± 2%.

The same assay, now with this note: compound 1 µM; bisulfide 600 µM, OAS at Km; two replicates; ns = Not Significant.
`Cc1ccc(-n2nccc2C(=O)O)cc1` [Compound 4a, 1-(p-tolyl)-1H-pyrazole-5-carboxylic acid]: the “% inhibition OASS-B” value is “ns”.

Take `O=C(O)c1ccn[nH]1` [Compound 4c, 1H-pyrazole-5-carboxylic acid]: the “% inhibition OASS-B” value was “ns”.

`O=C(O)c1ccnn1-c1ccc(Br)cc1` [Compound 4e, 1–(4-bromophenyl)-1H-pyrazole-5-carboxylic acid]: the “% inhibition OASS-B” value is reported as “ns”.

Turning to `CC(C)(C)c1ccc(-n2nccc2C(=O)O)cc1` [Compound 4f, 1–(4-(tert-butyl)phenyl)-1H-pyrazole-5-carboxylic acid], the “% inhibition OASS-B” value is “ns”.

Consider `O=C(O)c1ccnn1C1CCCCC1` [Compound 4h, 1-cyclohexyl-1H-pyrazole-5-carboxylic acid], for which the “% inhibition OASS-B” value is on record as “ns”.

Staying with this assay, now noted: read-out: % inhibition OASS-B.
For `Cc1ccc(-n2nccc2C(=O)O)cc1` [Compound 4a, 1-(p-tolyl)-1H-pyrazole-5-carboxylic acid], the inhibition at 1000 µM turned out to be 65 ± 2%.

On to `O=C(O)c1ccnn1-c1ccccc1` [Compound 4b, 1-phenyl-1H-pyrazole-5-carboxylic acid], for which the inhibition at 1000 µM was 65 ± 1%.

Turning to `O=C(O)c1ccn[nH]1` [Compound 4c, 1H-pyrazole-5-carboxylic acid], the inhibition at 1000 µM was found to be 82 ± 1%.

Regarding `O=C(O)c1ccnn1-c1ccc(Cl)cc1` [Compound 4d, 1–(4-chlorophenyl)-1H-pyrazole-5-carboxylic acid], the inhibition at 1000 µM was found to be 56 ± 1%.

Consider `O=C(O)c1ccnn1-c1ccc(Br)cc1` [Compound 4e, 1–(4-bromophenyl)-1H-pyrazole-5-carboxylic acid], for which the inhibition at 1000 µM was found to be 58 ± 2%.

Turning to `CC(C)(C)c1ccc(-n2nccc2C(=O)O)cc1` [Compound 4f, 1–(4-(tert-butyl)phenyl)-1H-pyrazole-5-carboxylic acid], the inhibition at 1000 µM was determined as 52 ± 5%.

Regarding `O=C(O)c1ccnn1-c1ccc(F)cc1` [Compound 4g, 1–(4-fluorophenyl)-1H-pyrazole-5-carboxylic acid], the inhibition at 1000 µM amounted to 62 ± 1%.

In the case of `O=C(O)c1ccnn1C1CCCCC1` [Compound 4h, 1-cyclohexyl-1H-pyrazole-5-carboxylic acid], the inhibition at 1000 µM was found to be 30 ± 1%.

A further assay addresses T3, StOASS-A (Salmonella typhimurium, UniProt P0A1E3).
T3 construct: His6 (N, cleaved yes); made in house; host or cells: E. coli Rosetta (DE3)
As to the kind of experiment: Fluorimetric binding titration (PLP emission), StOASS-A. On the set-up: species or system Salmonella enterica serovar Typhimurium. The settings on record: 1 µM StOASS-A, 100 mM Hepes pH 7, 20 °C; read-out: Kd OASS-A. The procedure:
as §1, §2
As for `O=C(O)c1ccn[nH]1` [Compound 4c, 1H-pyrazole-5-carboxylic acid], the Kd is 122 ± 5 µM.

Staying with this assay, now noted: LE = (1.37/HA). pIC50, HA = heavy atoms.
Take `O=C(O)c1ccn[nH]1` [Compound 4c, 1H-pyrazole-5-carboxylic acid]: the “LE (OASS-A)” value was found to be 0.67 kcal/mol/HA.

A word on the inhibition: it is the relative decrease from the control value, in per cent. One may read the Kd as the concentration at which binding is half-saturated.
